Where “and” joins values, the source holds several entries; their conditions need not be identical. Equal values may be shown once.
How the values were obtained:
[1] = system: SEAP expression in HEK293T cells; assay: MISO designer cells (CDH-1 + CDH-3 dual switches); type: cell-based; parameters: SEAP / Bottom (best-fit value) / Top (best-fit value) / Span (best-fit value): unit not given here; conditions: for logIC50 (best-fit value): drug in nM; for SEAP, Drug-1 turn OFF CDH-1-TF: Fig S13f; for SEAP, Drug-1 turn OFF CDH-1-GEMS: Fig S13g, representative data
Source text: Fig. 5 Orthogonal chemical switches enable implementation of multi-input multi-output control modes in mammalian cells. a Scheme of multi-inputs multi-outputs (MIMO) designer cells where two drugs control two different outputs. b, c Cells were co-transfected with AIR-1/2-GEMS and CDH-3-TF regulate SEAP and Luciferase expression, respectively. […] AIR-1/2-GEMS coupled with SEAP expression circuits were co-transfected with CDH-1/2-TF circuits which control the Luciferase production. Respective drug concentrations ranged from 0.001 nM to 1 µM. […]
We then engineered MISO cells (Fig. 5d) with CDH-1-TF and CDH-3-TF dual switches (Fig. 5e) that encode OFF behaviors controlled by Drug-1 and Drug-3. […] This output behavior is distinct from the typical SISO systems which only show two persistent states (high, low) (Fig. 2c, f). […] This type of output in biological systems could be utilized to produce graded levels of responses that are robust to minor oscillations in drug concentrations, and could be used to dissect fundamental biological processes but also to provide persistent response levels in translational applications.
1-TF and CDH-3-TF circuits. Drug-1 concentrations ranged from 0.001 nM to 1 µM (left) and 1 µM Drug-1 with serial diluted Drug-3 from 0.001 nM to 1 µM (right). g) Quantification of SEAP activity controlled […]
by CDH-1-GEMS and CDH-3-GEMS circuits. […]
Luciferase production (l). b-k) Each data point represents the mean of n = 3 biological replicates, and the dose-dependent curve were fitted using four-parameter nonlinear regression.

[2] = system: JAK/STAT pathway SEAP expression in HEK293T cells; assay: CDH-GEMS receptor signaling SEAP assay; type: cell-based; conditions: Suppl Fig 9b
Source text: To test modularity and performance robustness of the CDHs in different molecular contexts, we inserted these modules in the generalizable extracellular molecule sensor (GEMS) receptor signaling pathway platform[24] and built CDH-GEMS. In these constructs the CDHs are localized extracellularly and function as ectodomain switches, fused to the backbone of the erythropoietin receptor, and an intracellular interleukin 6 receptor domain which activates the JAK/STAT pathway (Fig. 3d). The CDH-GEMS trigger the activation of the JAK/STAT pathway by the dimerization of their subunits. Thus, the drugs are expected to split the CDHs inactivating the signaling pathway as assessed by the expression of the reporter protein SEAP. All three CDH-GEMS were responsive to their respective drugs dynamic response range varied from approximately 6-fold (CDH-2) to 8-fold (CDH-1,3) (Fig. 3e). […] The CDH-GEMS were also reversible upon intermittent drug treatment (Supplementary Fig. 7h, i). Despite that comparisons between CDH-TFs and CDH-GEMS are not straightforward due to differences in the reporter signaling pathways, we observe a general trend for the CDHs to present lower IC50s when used as extracellular modules, which is consistent with overcoming drug permeability issues in cells.
HEK293T cells were maintained in DMEM medium with 10% FBS (Gibco) and Pen/Strep (Thermo Fisher). Cells were maintained and split every two days at around 80% confluence. HEK293T cells were seeded 24 h before transfection, and transfected with the lipofectamine 3000 kit (Thermo Fisher). Plasmids were cotransfected according to the Table S7. For the drug OFF-switch experiments, drugs were added 12 h post transfection and incubated with cells for 24 h before the SEAP detection assay.
Secreted alkaline phosphatase (SEAP) activity (U/L) in cell culture supernatants was quantified by kinetic measurements at 405 nm (1 min/measurement for 30 cycles) of absorbance increase due to phosphatase-mediated hydrolysis of para-nitrophenyl phosphate (pNPP).
Apparent IC50s of SPR drug competition assay were calculated using three-parameter nonlinear regression in GraphPad Prism (Version 8.3.0). Representative data of cellular assays are presented as individual values and mean values (bars). n = 3 refers to biological replicates. All IC50/EC50 values of cellular assays (CDH-TF, CDH-GEMS, AIR-TF and AIR-GEMS) reported were calculated using four-parameter nonlinear regression ± s.d.
Supplementary Figure 9: Comparison of ON-state reporter expression of weak affinity variants of LD3 in CDH-1/2-GEMS platform. a) ON-state expression of CDH-1-GEMS with LD3 and LD3_v3. b) Drug dose-dependent responses in engineered cells determined for the CDH-1-GEMS with LD3 and LD3_v3. c) ON-state expression of CDH-2-GEMS with LD3 and LD3_v3. d) Drug dose-dependent responses in engineered cells determined for the CDH-2-GEMS with LD3 and LD3_v3. In the data shown HEK293T cells were […]
quantification was done 24 hours after drug treatment. a, c) The bar charts show the mean ± s.d. of n = 3 biologically independent samples overlaid with a scatter dot plot of the original data points. b, d) Each […]
parameter nonlinear regression.
(1 picture or pasted object on this page, not shown here)

[3] = Fig5e SEAP, CDH-1-TF, + 1 µM Drug-3, four-parameter fit
[4] = Fig5f SEAP, CDH-1-GEMS, + 1 µM Drug-3, three-parameter fit

Compound: CN(C)CC#Cc1ccc(OCCCc2sc(N3CCc4cccc(C(=O)Nc5nc6ccccc6s5)c4C3)nc2C(=O)O)c(F)c1 [Drug-1, A-1155463]
- Bottom (best-fit value) [1, 3]: 10.05
- HillSlope (best-fit value) [1, 3]: -1.155
- Span (best-fit value) [1, 3]: 11.2
- Top (best-fit value) [1, 3]: 21.26
- logIC50 (best-fit value) [1, 3]: 0.9359
- SEAP ([1]; Fig5e, turn OFF CDH-1-TF, 0.001 nM + 1 µM Drug-3): 16.8327 and 22.6453 and 20.005
- SEAP ([1]; Fig5e, turn OFF CDH-1-TF, 0.01 nM + 1 µM Drug-3): 20.9002 and 22.3965 and 21.4625
- SEAP ([1]; Fig5e, turn OFF CDH-1-TF, 0.1 nM + 1 µM Drug-3): 21.6157 and 22.7521 and 21.3586
- SEAP ([1]; Fig5e, turn OFF CDH-1-TF, 1 nM + 1 µM Drug-3): 21.4038 and 20.3272 and 21.0988
- SEAP ([1]; Fig5e, turn OFF CDH-1-TF, 10 nM + 1 µM Drug-3): 13.4848 and 15.392 and 15.5387
- SEAP ([1]; Fig5e, turn OFF CDH-1-TF, 100 nM + 1 µM Drug-3): 11.183 and 12.1962 and 11.7139
- SEAP ([1]; Fig5e, turn OFF CDH-1-TF, 1000 nM + 1 µM Drug-3): 9.72 and 8.497 and 9.661
- Bottom (best-fit value) [1, 4]: 12.41
- Span (best-fit value) [1, 4]: 42.02
- Top (best-fit value) [1, 4]: 54.44
- logIC50 (best-fit value) [1, 4]: 0.8832
- SEAP ([1]; Fig5f, turn OFF CDH-1-GEMS, 0.001 nM + 1 µM Drug-3): 55.6364 and 50.5517 and 48.8723
- SEAP ([1]; Fig5f, turn OFF CDH-1-GEMS, 0.01 nM + 1 µM Drug-3): 61.2598 and 59.0443 and 45.7788
- SEAP ([1]; Fig5f, turn OFF CDH-1-GEMS, 0.1 nM + 1 µM Drug-3): 46.4102 and 62.6516 and 50.3302
- SEAP ([1]; Fig5f, turn OFF CDH-1-GEMS, 1 nM + 1 µM Drug-3): 57.5516 and 40.155 and 62.0361
- SEAP ([1]; Fig5f, turn OFF CDH-1-GEMS, 10 nM + 1 µM Drug-3): 22.2271 and 39.6828 and 23.9896
- SEAP ([1]; Fig5f, turn OFF CDH-1-GEMS, 100 nM + 1 µM Drug-3): 14.7907 and 24.2066 and 13.0137
- SEAP ([1]; Fig5f, turn OFF CDH-1-GEMS, 1000 nM + 1 µM Drug-3): 8.999 and 11.1728 and 14.7089
- SEAP, Drug-1 turn OFF CDH-1-TF ([1]; Drug-1 0.001 nM): 37.8605 U/L and 37.6407 U/L and 37.2767 U/L
- SEAP, Drug-1 turn OFF CDH-1-TF ([1]; Drug-1 0.01 nM): 46.3191 U/L and 36.6964 U/L and 37.3836 U/L
- SEAP, Drug-1 turn OFF CDH-1-TF ([1]; Drug-1 0.1 nM): 40.0956 U/L and 39.4221 U/L and 42.0031 U/L
- SEAP, Drug-1 turn OFF CDH-1-TF ([1]; Drug-1 1 nM): 42.0045 U/L and 40.1385 U/L and 32.8382 U/L
- SEAP, Drug-1 turn OFF CDH-1-TF ([1]; Drug-1 10 nM): 31.0901 U/L and 30.8325 U/L and 26.6542 U/L
- SEAP, Drug-1 turn OFF CDH-1-TF ([1]; Drug-1 100 nM): 22.4541 U/L and 19.9215 U/L and 18.0282 U/L
- SEAP, Drug-1 turn OFF CDH-1-TF ([1]; Drug-1 1000 nM): 23.3552 U/L and 18.7039 U/L and 14.93 U/L
- SEAP, Drug-1 turn OFF CDH-1-GEMS ([1]; Drug-1 0.001 nM): 63.1346 U/L and 76.9207 U/L and 59.8899 U/L
- SEAP, Drug-1 turn OFF CDH-1-GEMS ([1]; Drug-1 0.01 nM): 62.4115 U/L and 58.8113 U/L and 53.5466 U/L
- SEAP, Drug-1 turn OFF CDH-1-GEMS ([1]; Drug-1 0.1 nM): 64.3309 U/L and 62.8524 U/L and 59.3961 U/L
- SEAP, Drug-1 turn OFF CDH-1-GEMS ([1]; Drug-1 1 nM): 47.8019 U/L and 47.3132 U/L and 39.8687 U/L
- SEAP, Drug-1 turn OFF CDH-1-GEMS ([1]; Drug-1 10 nM): 42.6016 U/L and 46.6627 U/L and 42.2581 U/L
- SEAP, Drug-1 turn OFF CDH-1-GEMS ([1]; Drug-1 100 nM): 43.3282 U/L and 43.4567 U/L and 33.8379 U/L
- SEAP, Drug-1 turn OFF CDH-1-GEMS ([1]; Drug-1 1000 nM): 36.4444 U/L and 23.5312 U/L and 44.7329 U/L
- SEAP % ([2]; BclxL:LD3, 0.001 nM): 18.0122% and 17.4443% and 16.8298%
- SEAP % ([2]; BclxL:LD3, 0.005 nM): 16.6899% and 17.1312% and 17.1781%
- SEAP % ([2]; BclxL:LD3, 0.01 nM): 17.4444% and 15.5469% and 16.1047%
- SEAP % ([2]; BclxL:LD3, 0.05 nM): 15.1537% and 15.6285% and 14.5618%
- SEAP % ([2]; BclxL:LD3, 0.1 nM): 14.6667% and 14.1653% and 14.4377%
- SEAP % ([2]; BclxL:LD3, 0.5 nM): 13.4918% and 13.7573% and 13.7645%
- SEAP % ([2]; BclxL:LD3, 1 nM): 11.4623% and 11.7897% and 11.4884%
- SEAP % ([2]; BclxL:LD3, 5 nM): 7.87% and 8.2239% and 7.705%
- SEAP % ([2]; BclxL:LD3, 10 nM): 5.487% and 5.0968% and 5.0693%
- SEAP % ([2]; BclxL:LD3, 50 nM): 4.04% and 4.459% and 3.462%
- SEAP % ([2]; BclxL:LD3, 100 nM): 4.1212% and 3.83% and 3.424%
- SEAP % ([2]; BclxL:LD3, 500 nM): 3.2684% and 3.043% and 3.776%
- SEAP % ([2]; BclxL:LD3, 1000 nM): 3.47% and 3.522% and 3.463%
- SEAP % ([2]; BclxL:LD3_v3, 0.001 nM): 16.3076% and 17.437% and 16.859%
- SEAP % ([2]; BclxL:LD3_v3, 0.005 nM): 14.9031% and 15.6748% and 15.9103%
- SEAP % ([2]; BclxL:LD3_v3, 0.01 nM): 13.8744% and 14.7636% and 15.1685%
- SEAP % ([2]; BclxL:LD3_v3, 0.05 nM): 12.8457% and 12.494% and 13.0699%
- SEAP % ([2]; BclxL:LD3_v3, 0.1 nM): 9.936% and 9.732% and 9.834%
- SEAP % ([2]; BclxL:LD3_v3, 0.5 nM): 8.327% and 7.455% and 7.64%
- SEAP % ([2]; BclxL:LD3_v3, 1 nM): 9.561% and 8.788% and 8.726%
- SEAP % ([2]; BclxL:LD3_v3, 5 nM): 4.582% and 4.8104% and 5.942%
- SEAP % ([2]; BclxL:LD3_v3, 10 nM): 4.563% and 3.586% and 4.47%
- SEAP % ([2]; BclxL:LD3_v3, 50 nM): 5.174% and 5.025% and 4.8595%
- SEAP % ([2]; BclxL:LD3_v3, 100 nM): 4.401% and 4.122% and 4.248%
- SEAP % ([2]; BclxL:LD3_v3, 500 nM): 4.318% and 3.762% and 3.577%
- SEAP % ([2]; BclxL:LD3_v3, 1000 nM): 4.822% and 4.215% and 3.859%
